Test results as given in patent US20240016933A1, “Methods of Anchoring or Reconstituting Active Molecules on Metabolically Labeled Cells” (The General Hospital Corporation, priority 2020, published 2024).

Key:
Type in all cases: cell-based
HeLa cells [1] = assay: Surface azide labeling of HeLa cells with AzNAM, DBCO-FAM fluorescence by flow cytometry; conditions: AzNAM 125 μM for 20 hours, versus cells receiving no azide-modified sugar
Description: In separate cultures, HeLa cells were added to wells of a 12-well plate at 10,000 cells/well, and cultured for 72 hours under normal conditions. The wells were washed with 1 ml of PBS, and 0.5 ml of DMEM-10% FBS was added. AzNAM was added to a final concentration of 125 μM, with cells receiving no azide-modified sugar as controls. After 20 hours, cells were harvested with CellStripper (250 μl/well), washed with PBS, and subjected to flow analysis.

HeLa cells [2] = assay: Surface azide labeling of HeLa cells with AzNAM, DBCO-FAM fluorescence read in plate reader; conditions: AzNAM 10-125 μM for 20 hours, then 10 μM DBCO-FAM for 1 hour
Description: Initially, cells were cultured in a suitable culture vessel such that their level of confluency at the time of addition of the azide-modified sugar, AzNAM, was not more than 80%.
In particular, HeLa cells were plated in 6-well plates (2.5×10^4 cells/well) and incubated for 48 hours in DMEM-10% FBS medium in a standard 5% CO2 atmosphere. Medium from each well was removed, and each well was washed with 2 ml of phosphate buffered saline (PBS), and fresh DMEM-FBS (1 ml) added. Subsequently, varying amounts of AzNAM (solubilized in DMSO) were added to the wells in small (10 μl) volumes to produce the desired final concentrations in the range 10-125 μM. After an additional 20 hours incubation, the medium in each well was removed, and the wells were washed with 2 ml of PBS, followed by addition of 1 ml of PBS. Then, a fluorescent azide reactive molecule, DBCO-FAM (Broadpharm), was directly added to each well to produce a final concentration of 10 μM.
Plates with added DBCO-FAM were protected from bright light and incubated for 1 hour at room temperature. Supernatants in each well were removed, and each well was washed twice with 2 ml of PBS. […] After pelleting and washing in PBS, cells were resuspended in 150 μl of PBS and counted. Defined numbers in 50 μl volumes in a 96-well Blackwell plate (Corning) were assayed for fluorescence in a fluorescent plate reader (Tecan).

Jurkat cells = assay: Placement of trastuzumab mimotope on azide-modified cells, flow analysis; conditions: AzNAM 100 μM for 24 hours
Description: (§1) Jurkat and HeLa cells were cultured for three days in their optimal media (RPMI-10% FBS/DMEM-10% FBS, respectively) in 6-well plates to reach a state of sub-confluency. AzNAM (from 100 mM DMSO stock) was added to designated wells to a […] of 100 μM. Control wells received equal volumes of DMSO only. After 24 hours, cells were harvested (directly for the non-adherent Jurkat cells, and with Cell Stripper reagent for HeLa cells), and washed in PBS. […] Cells treated with the DBCO-Jmim peptide were then subjected to standard staining with Trastuzumab (BioVision), followed by secondary staining with FITC-conjugated goat-anti-human kappa chain antibody. During the staining procedure, the control washed DBCO-FAM treated cells were kept on ice. Finally, all cells were subjected to flow cytometric analysis.

HeLa cells [3] = assay: as above; conditions: AzNAM 100 μM for 24 hours
Description: as §1

[4] = then 10 μM DBCO-Jmim for 1 hour, trastuzumab plus FITC goat-anti-human kappa, versus DMSO controls

## azido-N-acetylmannosamine [AzNAM]
HeLa cells [1]
  flow analysis peak shift (DBCO-FAM fluorescence): marked and well-demarcated peak shifts
HeLa cells [2]
  cell-associated fluorescence (96-well plate format): cell-associated fluorescence increased as a function of the levels of AzNAM
Jurkat cells; then 10 μM DBCO-FAM for 1 hour
  fluorescence after metabolic labeling and DBCO-FAM treatment (flow analysis): positive fluorescence
Jurkat cells; [4]
  staining with trastuzumab (flow analysis): strong staining with trastuzumab
HeLa cells [3]; then 10 μM DBCO-FAM for 1 hour
  fluorescence after metabolic labeling and DBCO-FAM treatment (flow analysis): positive fluorescence
HeLa cells [3]; [4]
  staining with trastuzumab (flow analysis): strong staining with trastuzumab
